Experiments:
Assay in all cases: growth inhibition relative to DMSO (0) and positive control (1) (fraction); higher = more growth inhibition
DIPGX37 [1] = test system: DIPGX37 (H3.3 K27M diffuse intrinsic pontine glioma line)
Protocol: (§1)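 Single-agent arm (compound 1 only) of the paxalisib / mirdametinib dose-matrix plates, 7 days, adherent 384-well. CellTiter-Glo RLU was normalised to fractional activity between DMSO (0) and the positive control (1).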

HGGX6 [2] = test system: HGGX6 (H3.3 G34R paediatric high-grade glioma line)
Protocol: as §1

HABS [3] = test system: HABS (astrocyte control)
Protocol: as §1

DIPGX7 [4] = test system: DIPGX7 (H3.3 K27M diffuse intrinsic pontine glioma line)
Protocol: as §1

iASTRO [5] = test system: iASTRO (astrocyte control)
Protocol: as §1

DIPGX29 [6] = test system: DIPGX29 (H3.3 K27M diffuse intrinsic pontine glioma line)
Protocol: as §1

HGGX42 [7] = test system: HGGX42 (H3.3 G34R paediatric high-grade glioma line)
Protocol: as §1

DIPGX37 [8] = test system: DIPGX37; remark: listed apart in the source
Protocol: (§2)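 Single-agent arm (compound 2 only) of the paxalisib / mirdametinib dose-matrix plates, 7 days, adherent 384-well. CellTiter-Glo RLU was normalised to fractional activity between DMSO (0) and the positive control (1).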

HGGX6 [9] = test system: HGGX6; remark: listed apart in the source
Protocol: as §2

HABS [10] = test system: HABS; remark: listed apart in the source
Protocol: as §2

DIPGX7 [11] = test system: DIPGX7; remark: listed apart in the source
Protocol: as §2

iASTRO [12] = test system: iASTRO; remark: listed apart in the source
Protocol: as §2

DIPGX29 [13] = test system: DIPGX29; remark: listed apart in the source
Protocol: as §2

HGGX42 [14] = test system: HGGX42; remark: listed apart in the source
Protocol: as §2

O=C(NOC[C@H](O)CO)c1ccc(F)c(F)c1Nc1ccc(I)cc1F
growth inhibition
Details	0.009766 µM	0.01953 µM	0.03906 µM	0.07812 µM	0.15625 µM	0.3125 µM	0.625 µM	1.25 µM	5 µM	20 µM
DIPGX7 [4]	0.00514	-0.0128	-0.0429	-0.0583	-0.0706	-0.0675	-0.0189	0.069	0.226	0.169
DIPGX7 [11]	–	–	-0.134	-0.0334	-0.0318	-0.00916	0.0291	0.0919	0.221	0.144
DIPGX29 [6]	0.0664	0.079	0.113	0.122	0.121	0.185	0.301	0.44	0.787	0.903
DIPGX29 [13]	–	–	0.0243	0.134	0.108	0.159	0.301	0.477	0.795	0.903
DIPGX37 [1]	-0.0815	-0.107	-0.0915	-0.0274	0.0635	0.18	0.339	0.511	0.9225	0.9749
DIPGX37 [8]	–	–	-0.168	-0.0488	0.038	0.147	0.274	0.418	0.857	0.9777
HABS [3]	-0.13	-0.164	-0.228	-0.269	-0.234	-0.0414	0.126	0.275	0.665	0.853
HABS [10]	–	–	-0.334	-0.268	-0.258	-0.201	-0.0364	0.168	0.618	0.797
HGGX6 [2]	-0.059	-0.035	-0.0725	-0.0513	-0.0455	0.0143	0.0902	0.0994	0.353	0.581
HGGX6 [9]	–	–	-0.174	-0.0709	-0.0557	0.064	0.133	0.156	0.414	0.596
HGGX42 [7]	-0.0885	-0.0961	-0.107	-0.127	-0.145	-0.165	-0.133	-0.126	0.241	0.441
HGGX42 [14]	–	–	-0.199	-0.114	-0.121	-0.215	-0.198	-0.0799	0.284	0.494
iASTRO [5]	0.0411	0.0442	0.0806	0.0816	0.113	0.124	0.173	0.119	0.0668	0.0562
iASTRO [12]	–	–	0.0464	0.0732	0.0675	0.0849	0.116	0.0295	0.0268	0.058

CC1(C)OCCn2c1nc1c(N3CCOCC3)nc(-c3cnc(N)nc3)nc12 [GDC0084]
growth inhibition
Details	0.009766 µM	0.01953 µM	0.03906 µM	0.07812 µM	0.15625 µM	0.3125 µM	0.625 µM	1.25 µM	5 µM	20 µM
DIPGX7 [4]	0.0627	0.0708	0.104	0.186	0.381	0.622	0.771	0.8548	0.9176	0.977
DIPGX7 [11]	–	–	0.051	0.197	0.446	0.658	0.787	0.8579	0.9157	0.9671
DIPGX29 [6]	0.073	0.102	0.178	0.216	0.266	0.357	0.491	0.595	0.8914	0.9212
DIPGX29 [13]	–	–	0.0637	0.169	0.232	0.295	0.423	0.603	0.87	0.9389
DIPGX37 [1]	-0.0429	-0.0173	0.0381	0.138	0.304	0.453	0.566	0.71	0.9509	0.9986
DIPGX37 [8]	–	–	-0.00546	0.192	0.323	0.499	0.598	0.756	0.9558	0.99839
HABS [3]	0.075	0.0784	0.0871	0.118	0.171	0.208	0.326	0.489	0.807	0.9807
HABS [10]	–	–	-0.0282	0.105	0.153	0.193	0.29	0.463	0.807	0.9834
HGGX6 [2]	-0.0247	-0.0158	0.0132	0.0493	0.125	0.232	0.359	0.507	0.758	0.869
HGGX6 [9]	–	–	-0.045	0.0144	0.106	0.211	0.329	0.486	0.741	0.872
HGGX42 [7]	0.0532	0.0705	0.164	0.226	0.378	0.528	0.685	0.777	0.885	0.913
HGGX42 [14]	–	–	0.112	0.274	0.471	0.516	0.673	0.782	0.8721	0.898
iASTRO [5]	0.019	0.0114	0.00198	0.00243	0.00554	-0.0144	-0.0681	-0.0251	0.577	0.706
iASTRO [12]	–	–	0.0361	0.0247	0.0269	-0.0092	-0.0383	0.0569	0.631	0.726
